One may read the IC50 as the concentration that gives 50% inhibition. Higher therefore signals a need for much substance.

Series [1] is described as follows: Evaluation of total body clearance (CLtot), intravenous administration. It counts as in vivo, Sprague-Dawley (SD). To be noted: rat (SD), intravenous administration 0.5-10 mg/kg; CLtot = dose/AUC. The method, boiled down:
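Compounds given as a single tail-vein injection at 0.5-10 mg/kg (n=2-3), dose varying by compound. Plasma sampled at scheduled times and measured by LC/MS/MS; CLtot derived as dose divided by AUC from pharmacokinetic analysis.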

Series [2] can be described thus: Protein binding test (equilibrium dialysis, unbound ratio fu in serum). The format is in vitro ADME. Particulars: 37° C.; for rat_fu: rat serum, equilibrium dialysis 24 hours, 2 μg/mL. The method, then: Assay condition: Evaluation method; Equilibrium dialysis method, Reaction time; 24 hours, Reaction temperature; 37° C., Assay concentration; 2 μg/mL A solution of the compound was added to each serum and mixed to prepare the serum samples with above concentration. The serum sample was put into one side of an equilibrium dialysis apparatus with dialysis membrane and phosphate buffered saline (PBS) was also put to another side of the apparatus. The apparatus was incubated at 37° C. for 24 hours. After incubation, the serum and PBS samples were collected and the compound concentrations in both samples were measured by LC/MS/MS. Fu was calculated by dividing the concentration in PBS by the concentration in the serum.
On the technique in general: In equilibrium dialysis only unbound substance equilibrates across the membrane.

The next series deals with HIV-1 PR (Human immunodeficiency virus type 1 group M subtype B, UniProt P04585). Nature of the series: HIV-protease inhibitory activity assay (FRET peptide substrate). The format is biochemical. Particulars: Test Example 1. The method, boiled down: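 Fluorescence recovery at ex 485/em 535 nm reports cleavage of a quenched FRET peptide (2 μmol/L final) by 0.83 ng enzyme over 60 minutes at room temperature. Buffer was NaAc pH 4.8 with NaCl, EDTA, DTT and Tween 20. IC50 values came from four-parameter logistic regression of % inhibition.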

Molecules are shown by their SMILES. Some results are limits rather than exact numbers.

On to `COc1ccc(S(=O)(=O)N(CC(C)C)C[C@@H](O)[C@H](Cc2ccc(OCc3ccccc3-c3sc4c(c3C(=O)O)CC(C)(C)CC4)cc2)NC(=O)O[C@H]2CO[C@@]3(C)OCC[C@@H]23)cc1` [Compound I-1], for which the rat_CLt in series [1] amounted to 0.542 mL/min/kg. For the same compound, in series [2], the rat_fu is given as less than 0.1%. At HIV-1 PR, this compound showed a concentration for half-maximal inhibition (IC50) of 1.29 nM.

Regarding `COc1ccc(S(=O)(=O)N(CC(C)C)C[C@@H](O)[C@H](Cc2ccc(OCc3ccccc3-c3sc4c(c3C(=O)O)CCCC4=O)cc2)NC(=O)O[C@H]2CO[C@@]3(C)OCC[C@@H]23)cc1` [Compound I-2], in series [1], the rat_CLt is 5.11 mL/min/kg. Also, in series [2], the rat_fu was less than 0.1%. Besides, the IC50 on HIV-1 PR is 1.05 nM.

Take `COc1ccc(S(=O)(=O)N(CC(C)C)C[C@@H](O)[C@H](Cc2ccc(O[C@@H]3CCN(c4ccccc4-c4sc5c(c4C(=O)O)CC(C)(C)CC5)C3)cc2)NC(=O)O[C@H]2CO[C@@]3(C)OCC[C@@H]23)cc1` [Compound I-6]: in series [1], the rat_CLt is reported as 1.22 mL/min/kg. In addition, the rat_fu in series [2] is reported as less than 0.1%. The compound further came in with an IC50 at HIV-1 PR of 1.36 nM.

The compound `COc1ccc(S(=O)(=O)N(CC(C)C)C[C@@H](O)[C@H](Cc2ccc(OC(C)(C)C(=O)Nc3sc4c(c3C(=O)O)CC(C)(C)CC4)cc2)NC(=O)O[C@H]2CO[C@@]3(C)OCC[C@@H]23)cc1` [Compound I-7] yielded a rat_CLt in series [1] of 0.238 mL/min/kg. The rat_fu in series [2] is recorded as less than 0.1%. Besides, it took 2.31 nM to reach half-maximal inhibition against HIV-1 PR (IC50).

For the compound `COc1ccc(S(=O)(=O)N(CC(C)C)C[C@@H](O)[C@H](Cc2ccc(CCc3sc4c(c3C(=O)O)CC(C)(C)CC4)cc2)NC(=O)O[C@H]2CO[C@@]3(C)OCC[C@@H]23)cc1` [Compound I-12], the rat_CLt in series [1] is 2.9 mL/min/kg. Moreover, the rat_fu in series [2] is less than 0.1%. The compound also yielded an IC50 at HIV-1 PR of 1.82 nM.

In series [1], `CC(C)CN(C[C@@H](O)[C@H](Cc1ccc(CCc2sc3c(c2C(=O)O)CC(C)(C)CC3)cc1)NC(=O)O[C@H]1CO[C@@]2(C)OCC[C@@H]12)S(=O)(=O)c1ccc2nc(N)sc2c1` [Compound I-15] displayed a rat_CLt of 4.86 mL/min/kg. Further, the rat_fu in series [2] is listed as less than 0.1%. For the same compound, the half-inhibitory concentration (IC50) on HIV-1 PR stood at 2.27 nM.

In turn, `COc1ccc(S(=O)(=O)N(CC(C)C)CC(O)C(Cc2ccc(OCc3ccccc3-c3sc4c(c3C(=O)O)CC(C)(C)CC4)cc2)NC(=O)OC2CC3OCC(O)C3C2)cc1` (centres unmarked) [Compound I-29] displayed a rat_CLt in series [1] of 1.54 mL/min/kg. The rat_fu in series [2] is listed as less than 0.1%. The compound also gave an IC50 at HIV-1 PR of 1.41 nM.

In series [1], `COc1ccc(S(=O)(=O)N(CC(C)C)C[C@@H](O)[C@H](Cc2ccc(OCc3ccccc3-c3sc4c(c3C(=O)O)CC(C)(C)CC4)cc2)NC(=O)[C@H](CC(N)=O)NC(=O)c2ccc3ccccc3n2)cc1` [Compound I-30] returned a rat_CLt of 1.52 mL/min/kg. The rat_fu in series [2] was less than 0.1%. Moreover, 3.67 nM corresponded to half-maximal inhibition at HIV-1 PR (IC50).

In series [1], `CC(C)CN(CC(O)C(Cc1ccc(CCc2sc3c(c2C(=O)O)CC(C)(C)CC3)cc1)NC(=O)OC1COC2(C)OCCC12)S(=O)(=O)c1ccc(N)cc1` (centres unmarked) [Compound I-43] returned a rat_CLt of 3.19 mL/min/kg. In addition, the rat_fu in series [2] is reported as less than 0.1%. This compound also showed an IC50 against HIV-1 PR of 2 nM.

In series [1], `COc1ccc(S(=O)(=O)N(CC(C)C)CC(O)C(Cc2ccc(OCc3ncccc3-c3ccc(-c4sc5c(c4C(=O)O)CC(C)(C)CC5)cc3)cc2)NC(=O)OC2COC3(C)OCCC23)cc1` (centres unmarked) [Compound I-44] gave a rat_CLt of 0.535 mL/min/kg. In addition, in series [2], the rat_fu is on record as less than 0.1%. For the same compound, the IC50 against HIV-1 PR was determined as 1.09 nM.

Regarding `COc1ccc(S(=O)(=O)N(CC(C)C)CC(O)C(Cc2ccc(N(Cc3ccccc3)Cc3sc4c(c3C(=O)O)CC(C)(C)CC4)cc2)NC(=O)OC2COC3(C)OCCC23)cc1` (centres unmarked) [Compound I-47], in series [1], the rat_CLt was determined as 3.51 mL/min/kg. Further, in series [2], the rat_fu is reported as less than 0.1%. Further, on HIV-1 PR, the IC50 was 5.41 nM.

For the compound `COc1ccc(S(=O)(=O)N(CC(C)C)CC(O)C(Cc2ccc(OCc3ccccc3-c3oc4c(c3C(=O)O)CC(C)(C)CC4)cc2)NC(=O)OC2COC3(C)OCCC23)cc1` (centres unmarked) [Compound I-49], the rat_CLt in series [1] turned out to be 2.23 mL/min/kg. Further, in series [2], the rat_fu is on record as less than 0.1%. The compound also gave an IC50 at HIV-1 PR of 2.5 nM.

In the case of `CC(C)CN(CC(O)C(Cc1ccc(OCc2ccccc2-c2sc3c(c2C(=O)O)CC(C)(C)CC3)cc1)NC(=O)OC1COC2(C)OCCC12)S(=O)(=O)c1ccc2nc(N)sc2c1` (centres unmarked) [Compound I-51], in series [1], the rat_CLt was 1.47 mL/min/kg. Also, the rat_fu in series [2] is recorded as less than 0.1%. Also, the IC50 against HIV-1 PR is 2.65 nM.

As for `COc1ccc(S(=O)(=O)N(CC(C)C)C[C@@H](O)[C@H](Cc2ccc(NCc3cc(-c4ccc(N(C)C)cc4)ccc3-c3sc4c(c3C(=O)O)CC(C)(C)CC4)cc2)NC(=O)O[C@H]2CO[C@@]3(C)OCC[C@@H]23)cc1` [Compound I-720], the rat_CLt in series [1] turned out to be 0.0677 mL/min/kg. This compound displayed an IC50 at HIV-1 PR of 2.42 nM.

As for `COc1ccc(S(=O)(=O)N(CC(C)C)CC(O)C(Cc2ccc(NCc3cc(C4=CCCCC4)ccc3-c3sc4c(c3C(=O)O)CC(C)(C)CC4)cc2)NC(=O)OC2COC3(C)OCCC23)cc1` (centres unmarked) [Compound I-727], in series [1], the rat_CLt is given as 0.0528 mL/min/kg. Besides, half-maximal inhibition against HIV-1 PR (IC50) was put at 3.38 nM.

The compound `COc1ccc(S(=O)(=O)N(CC(C)C)CC(O)C(Cc2ccc(NCc3ccc(N4CCCC4=O)cc3-c3sc4c(c3C(=O)O)CC(C)(C)CC4)cc2)NC(=O)OC2COC3(C)OCCC23)cc1` (centres unmarked) [Compound I-742] gave a rat_CLt in series [1] of 5.03 mL/min/kg. In addition, the IC50 on HIV-1 PR is 2.08 nM.

In series [1], `COc1ccc(S(=O)(=O)N(CC(C)C)CC(O)C(Cc2ccc(NCc3ccccc3-c3sc4c(c3C(=O)O)CC(C)(C)CC4)cc2)NC(=O)OC2COC3OCCC23)cc1` (centres unmarked) [Compound I-852] came in with a rat_CLt of 2.25 mL/min/kg. Further, the IC50 against HIV-1 PR was 1.99 nM.

In series [1], `COc1ccc(S(=O)(=O)N(CC2CCCC2)CC(O)C(Cc2ccc(NCc3ccccc3C(=O)Nc3sc4c(c3C(=O)O)CC(C)(C)CC4)cc2)NC(=O)OC2COC3OCCC23)cc1` (centres unmarked) [Compound I-857] yielded a rat_CLt of 0.132 mL/min/kg. The IC50 against HIV-1 PR was 3.41 nM.

Consider `CC1(C)CCc2sc(NC(=O)c3ccccc3CNc3ccc(CC(NC(=O)OC4COC5OCCC45)C(O)CN(CC4CCCC4)S(=O)(=O)c4ccc5c(c4)OCO5)cc3)c(C(=O)O)c2C1` (centres unmarked) [Compound I-858], for which the rat_CLt in series [1] is 0.142 mL/min/kg. This compound showed an IC50 against HIV-1 PR of 4.23 nM.

Consider `CC1(C)CCc2sc(NC(=O)c3ccccc3CNc3ccc(CC(NC(=O)OC4COC5OCCC45)C(O)CN(CC4CCCC4)S(=O)(=O)c4ccc5ncsc5c4)cc3)c(C(=O)O)c2C1` (centres unmarked) [Compound I-859], for which the rat_CLt in series [1] turned out to be 0.2 mL/min/kg. Half-maximal inhibition at HIV-1 PR (IC50) was put at 3.41 nM.

In series [1], `COc1ccc(S(=O)(=O)N(CC2CCC2)CC(O)C(Cc2ccc(NCc3ccccc3C(=O)Nc3sc4c(c3C(=O)O)CC(C)(C)CC4)cc2)NC(=O)OC2COC3OCCC23)cc1` (centres unmarked) [Compound I-860] displayed a rat_CLt of 0.0981 mL/min/kg. Besides, at HIV-1 PR, the IC50 stood at 3.56 nM.

Take `CC1(C)CCc2sc(NC(=O)c3ccccc3CNc3ccc(CC(NC(=O)OC4COC5OCCC45)C(O)CN(CC4CCC4)S(=O)(=O)c4ccc5c(c4)OCO5)cc3)c(C(=O)O)c2C1` (centres unmarked) [Compound I-861]: the rat_CLt in series [1] turned out to be 0.0804 mL/min/kg. Inhibition against HIV-1 PR was half-maximal at 2.8 nM (IC50).

Consider `CC1(C)CCc2sc(NC(=O)c3ccccc3CNc3ccc(CC(NC(=O)OC4COC5OCCC45)C(O)CN(CC4CCC4)S(=O)(=O)c4ccc5ncsc5c4)cc3)c(C(=O)O)c2C1` (centres unmarked) [Compound I-862], for which the rat_CLt in series [1] is given as 0.14 mL/min/kg. Moreover, the half-inhibitory concentration (IC50) on HIV-1 PR was found to be 2.61 nM.

For `COc1ccc(S(=O)(=O)N(CC2CCC2)CC(O)C(Cc2ccc(NCc3cc(C(F)(F)F)ccc3-c3sc4c(c3C(=O)O)CC(C)(C)CC4)cc2)NC(=O)OC2COC3OCCC23)cc1` (centres unmarked) [Compound I-869], in series [1], the rat_CLt is 1.15 mL/min/kg. For the same compound, it took 6.45 nM to reach half-maximal inhibition against HIV-1 PR (IC50).

In series [1], `COc1ccc(S(=O)(=O)N(CC(C)C)CC(O)C(Cc2ccc(NCC3CCCC3c3sc4c(c3C(=O)O)CC(C)(C)CC4)cc2)NC(=O)OC2COC3OCCC23)cc1` (centres unmarked) [Compound I-877] displayed a rat_CLt of 2.31 mL/min/kg. In addition, the concentration for half-maximal inhibition (IC50) against HIV-1 PR stood at 2.12 nM.

In series [1], `COc1ccc(S(=O)(=O)N(CC(C)C)CC(O)C(Cc2ccc(NCc3ncccc3C(=O)Nc3sc4c(c3C(=O)O)CC(C)(C)CC4)cc2)NC(=O)OC2COC3OCCC23)cc1` (centres unmarked) [Compound I-882] showed a rat_CLt of 0.26 mL/min/kg. The compound also registered an IC50 on HIV-1 PR of 2.28 nM.

The compound `COc1ccc(S(=O)(=O)N(CC(C)C)CC(O)C(Cc2ccc(NCc3ccccc3-c3sc4c(c3C(=O)O)CC(C)(C)CC4)cc2)NC(=O)OC2COC3(C)OCCC23O)cc1` (centres unmarked) [Compound I-890] showed a rat_CLt in series [1] of 0.652 mL/min/kg. The compound further returned an IC50 against HIV-1 PR of 1.74 nM.

Consider `CC(C)CN(C[C@@H](O)[C@H](Cc1ccccc1)NC(=O)O[C@H]1CO[C@H]2OCC[C@H]21)S(=O)(=O)c1ccc(N)cc1` [Darunavir, (3R,3aS,6aR)-hexahydrofuro[2,3-b]furan-3-yl[(1S,2R)-3-{[(4-aminophenyl)sulfonyl] (2-methylpropyl)amino}-1-benzyl-2-hydroxypropyl]carbamate, reference compound], for which, in series [2] (serum, equilibrium dialysis, 24 hours, read-out: Serum protein binding rate (converted)), the fraction unbound at 24 h, 2 μg/mL was 0.903.

(Values after patent publication US20170253607A1, “LONG-ACTING HIV PROTEASE INHIBITOR” (Shionogi & Co., Ltd., priority 2014, published 2017).)
